Measurements published in ChEMBL document CHEMBL1201862, “PubChem BioAssay data set” (2004).
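Tested at 5 concentrations; 48 h exposure; 96-well plates; endpoints linearly interpolated, else capped at highest concentration. GI50: concentration for 50% inhibition of growth.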 Calls of active or inactive are those of the source. No stated cut-off is given here; in the data, active = GI50 up to about 1.1 µM and inactive = higher.

How the values were obtained:
Experiment in all cases: DTP human tumour cell line panel, 48 h
CCRF-CEM = system: CCRF-CEM
DU-145 = system: DU-145
HCT-15 = system: HCT-15
HOP-92 = system: HOP-92
KM12 = system: KM12
MCF7 = system: MCF7
MDA-MB-231 = system: MDA-MB-231
MOLT-4 = system: MOLT-4
NCI-H460 = system: NCI-H460
OVCAR-3 = system: OVCAR-3
OVCAR-5 = system: OVCAR-5
PC-3 = system: PC-3
RXF 393 = system: RXF 393
SK-MEL-28 = system: SK-MEL-28
SN12C = system: SN12C
SNB-19 = system: SNB-19
SNB-75 = system: SNB-75
UACC-62 = system: UACC-62

| Structure (SMILES) | GI50 (CCRF-CEM) | GI50 (DU-145) | GI50 (HCT-15) [µM] | GI50 (HOP-92) | GI50 (KM12) | GI50 (MCF7) | GI50 (MDA-MB-231) | GI50 (MOLT-4) | GI50 (NCI-H460) | GI50 (OVCAR-3) | GI50 (OVCAR-5) | GI50 (PC-3) | GI50 (RXF 393) | GI50 (SK-MEL-28) | GI50 (SN12C) | GI50 (SNB-19) | GI50 (SNB-75) | GI50 (UACC-62) |
| --- | --- | --- | --- | --- | --- | --- | --- | --- | --- | --- | --- | --- | --- | --- | --- | --- | --- | --- |
| CC(C)N(CC(=O)O)CC(=O)O | > 100 µM (inactive) | > 100 µM (inactive) | > 100 | > 100 µM (inactive) | > 100 µM (inactive) | > 100 µM (inactive) | > 100 µM (inactive) | > 100 µM (inactive) | > 100 µM (inactive) | > 100 µM (inactive) | > 100 µM (inactive) | > 100 µM (inactive) | > 100 µM (inactive) | > 100 µM (inactive) | > 100 µM (inactive) | > 100 µM (inactive) | > 100 µM (inactive) | > 100 µM (inactive) |
| C(=N\N=C1NCCCN1)/c1ccc2ccccc2c1 | 11.2 µM (inactive) | 11 µM (inactive) | 13.7 | 10.3 µM (inactive) | 13.6 µM (inactive) | 3.4 µM (inactive) | 6.32 µM (inactive) | 1.95 µM (inactive) | 4.98 µM (inactive) | 14.7 µM (inactive) | 8.69 µM (inactive) | 10.3 µM (inactive) | 15.5 µM (inactive) | 15.9 µM (inactive) | 12.4 µM (inactive) | 14.7 µM (inactive) | 3.97 µM (inactive) | 13.5 µM (inactive) |
| COC(=O)c1ccc(C)cc1CC1Cc2c(C)cccc2C1=O (stereo not drawn) | 7.05 µM (inactive) | 29.4 µM (inactive) | 3.05 | 16.9 µM (inactive) | 3.4 µM (inactive) | 2.11 µM (inactive) | 2.32 µM (inactive) | 5.56 µM (inactive) | 17.8 µM (inactive) | 3.96 µM (inactive) | 34.4 µM (inactive) | 6.5 µM (inactive) | 10.9 µM (inactive) | 15.2 µM (inactive) | 6.62 µM (inactive) | 9.89 µM (inactive) | 4.16 µM (inactive) | 6.01 µM (inactive) |
| CCOC(=O)C1(C(=O)OCC)C[C@H](C)[C@](C)(O)C1 | > 100 µM (inactive) | > 100 µM (inactive) | > 100 | > 100 µM (inactive) | > 100 µM (inactive) | > 100 µM (inactive) | > 100 µM (inactive) | > 100 µM (inactive) | > 100 µM (inactive) | > 100 µM (inactive) | > 100 µM (inactive) | > 100 µM (inactive) | > 100 µM (inactive) | > 100 µM (inactive) | > 100 µM (inactive) | > 100 µM (inactive) | > 100 µM (inactive) | > 100 µM (inactive) |
| Nc1ncnc2c1ncn2C(=O)NC12CC3CC(CC(C3)C1)C2 | 44 µM (inactive) | > 100 µM (inactive) | > 100 | > 100 µM (inactive) | > 100 µM (inactive) | > 100 µM (inactive) | > 100 µM (inactive) | > 100 µM (inactive) | > 100 µM (inactive) | > 100 µM (inactive) | > 100 µM (inactive) | > 100 µM (inactive) | > 100 µM (inactive) | > 100 µM (inactive) | > 100 µM (inactive) | > 100 µM (inactive) | 84.7 µM (inactive) | > 100 µM (inactive) |
| CCCc1c(O)c(=O)c2c(OC)cc(OC)c3c4c(OC)cc(OC)c5c(=O)c(O)c(CCC)c(c1c23)c54 | 0.181 µM (active) | 0.37 µM (active) | 0.746 | 0.681 µM (active) | 0.458 µM (active) | 0.403 µM (active) | 1.56 µM (inactive) | 0.0883 µM (active) | 0.301 µM (active) | 1.92 µM (inactive) | 2.13 µM (inactive) | 0.443 µM (active) | 2.79 µM (inactive) | 3.13 µM (inactive) | 1.76 µM (inactive) | 0.351 µM (active) | 0.183 µM (active) | 0.396 µM (active) |
